The values below come from US20170066759A1, “AROMATIC 5-MEMBERED HETEROCYCLIC DERIVATIVE HAVING TRPV4-INHIBITING ACTIVITY” (Shionogi & Co., Ltd., priority 2012, published 2017).

The target in series [1] is T1, human TRPV4 (hTRPV4/CHO cells) (Homo sapiens, UniProt Q9HBA0).
T1 construct: expressed in transfected cells; host or cells: CHO-K1
Put plainly: Test Example 1: TRPV4 inhibitory activity (IC50 value), 4α-PDD stimulation, Fluo4 calcium fluorescence (FLIPR TETRA). The class given is cell-based. To be noted: Test Example 1, 4α-PDD stimulation, read-out: Test 1 IC50.

Series [2] has as its target T2, CYP3A4 enzyme expressed in Escherichia coli (Homo sapiens, UniProt P08684).
T2 construct: host or cells: Escherichia coli
Put plainly: Test Example 5: CYP3A4 fluorescent MBI test. The class given is in vitro ADME. The note with it: substrate 7-BFC, pre-reaction 30 minutes, compound 0.625-20 μmol/L. How it is done: CYP3A4 Fluorescent MBI Test
The CYP3A4 fluorescent MBI test is a test of investigating enhancement of CYP3A4 inhibition of a compound of the present invention by a metabolism reaction, and the test was performed using, as CYP3A4 enzyme expressed in Esherichia coli and employing, as an index, a reaction in which 7-benzyloxytrifluoromethylchmarin (7-BFC) is debenzylated by the CYP3A4 enzyme to produce a metabolite, 7-hydroxytrifluoromethylchmarin (HFC) emitting fluorescent light.
The reaction conditions were as follows: substrate, 5.6 μmol/L 7-BFC; pre-reaction time, […] or 30 minutes; reaction time, 15 minutes; reaction temperature, 25° C. […]
An enzyme in a K-Pi buffer (pH 7.4) and a solution of the compound of the present invention as a pre-reaction solution were added to a 96-well plate at the above composition of the pre-reaction. […] For the plate on which each index reaction had been performed, a fluorescent value of 7-HFC which is a metabolite was measured with a fluorescent plate reader. […]
Addition of only DMSO which is a solvent dissolving the compound of the present invention to a reaction system was adopted as a control (100%). Remaining activity (%) was calculated at each concentration of the compound of the present invention added as the solution, and IC50 was calculated by reverse-presumption by a logistic model using a concentration and an inhibition rate. […]

For series [3], the system named is Salmonella typhimurium TA98 strain, TA100 strain. Put plainly: Test Example 7: FAT test (mutagenicity). Also on record: key: (−) means that mutagenicity is negative; (+) is positive. The note with it: TA98 and TA100 strains, non-metabolism activating and metabolism activating conditions. The procedure: Mutagenicity of a compound of the present invention was evaluated.
[…] of freezing-stored rat typhoid bacillus (Salmonella typhimurium TA98 strain, TA100 strain) was inoculated on 10 mL of a liquid nutrient medium (2.5% Oxoid nutrient broth No. 2), and this was cultured before shaking at 37° C. for 10 hours. 9 mL of a bacterial solution of the TA98 strain was centrifuged (2000×g, 10 minutes) to remove a culturing solution. The bacteria was suspended in 9 mL of a Micro F buffer (K2HPO4: 3.5 g/L, KH2PO4: 1 g/L, (NH4)2SO4: 1 g/L, trisodium citrate dehydrate: 0.25 g/L, MgSO4*7H2O: 0.1 g/L), the suspension was added to 110 mL of an Exposure medium (Micro F buffer containing Biotin: 8 μg/mL, histidine: 0.2 μg/mL, glucose: 8 mg/mL). The TA100 strain was added to 120 mL of the Exposure medium relative to 3.16 mL of the bacterial solution to prepare a test bacterial solution. […] Since a well containing a bacterium which has obtained the proliferation ability by mutation of an amino acid (histidine) synthesizing enzyme gene turns from purple to yellow due to a pH change, the bacterium proliferation well which has turned to yellow in 48 wells per dose was counted, and was assessed by comparing with a negative control group. […]

Series [4] is described as follows: Test Example 11: BA test (oral absorbability). The note with it: plasma; Mouse, oral administration 1 mg/kg. The class given is in vivo. How it is done:
Materials and methods for experiments to evaluate oral absorbability
(1) Experimental animals: rats or mice were used. (2) Breeding condition: rats or mice were allowed free access to solid feed and sterilized tap water (3) Setting of dosage and grouping: Oral administration and intravenous administration were performed with the predetermined dosage. Grouping was set as below. (Dosage varied depending on each compound)
Oral administration 1 to 30 mg/kg (n=2 to 3)
Intravenous administration 0.5 to 10 mg/kg (n=2 to 3)
(4) Preparation of administered liquid: Oral administration was performed using a solution or a suspension. Intravenous administration was performed after solubilization. (5) Method of Administration: In oral administration, compulsory administration to the stomach was conducted using an oral sonde. […] (6) Evaluation items: Blood was chronologically collected, and then concentration of a compound of the present invention in blood plasma was measured using a LC/MS/MS. […]
(7) Statistical analysis: With regard to a shift in plasma concentration of the compound of the present invention, the area under the plasma concentration-time curve (AUC) was calculated using a nonlinear least-squares program, WinNonlin (a registered trademark). Bioavailability (BA) was calculated from the AUCs of the oral administration group and the intravenous administration group. […]

T2 sequence (P08684 whole entry): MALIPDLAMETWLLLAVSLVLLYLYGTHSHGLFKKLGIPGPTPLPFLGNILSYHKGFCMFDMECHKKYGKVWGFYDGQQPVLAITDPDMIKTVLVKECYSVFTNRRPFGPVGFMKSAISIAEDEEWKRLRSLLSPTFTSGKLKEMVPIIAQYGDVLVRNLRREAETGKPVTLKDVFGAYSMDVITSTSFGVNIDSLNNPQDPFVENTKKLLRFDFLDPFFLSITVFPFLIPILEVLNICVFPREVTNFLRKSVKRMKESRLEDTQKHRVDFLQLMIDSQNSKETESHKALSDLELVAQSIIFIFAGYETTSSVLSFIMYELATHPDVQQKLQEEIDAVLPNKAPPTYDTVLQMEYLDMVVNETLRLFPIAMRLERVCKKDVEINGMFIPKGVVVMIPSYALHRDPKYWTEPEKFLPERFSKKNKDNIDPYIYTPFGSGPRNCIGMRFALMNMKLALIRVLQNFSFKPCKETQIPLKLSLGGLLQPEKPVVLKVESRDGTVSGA
T1 sequence (Q9HBA0 whole entry): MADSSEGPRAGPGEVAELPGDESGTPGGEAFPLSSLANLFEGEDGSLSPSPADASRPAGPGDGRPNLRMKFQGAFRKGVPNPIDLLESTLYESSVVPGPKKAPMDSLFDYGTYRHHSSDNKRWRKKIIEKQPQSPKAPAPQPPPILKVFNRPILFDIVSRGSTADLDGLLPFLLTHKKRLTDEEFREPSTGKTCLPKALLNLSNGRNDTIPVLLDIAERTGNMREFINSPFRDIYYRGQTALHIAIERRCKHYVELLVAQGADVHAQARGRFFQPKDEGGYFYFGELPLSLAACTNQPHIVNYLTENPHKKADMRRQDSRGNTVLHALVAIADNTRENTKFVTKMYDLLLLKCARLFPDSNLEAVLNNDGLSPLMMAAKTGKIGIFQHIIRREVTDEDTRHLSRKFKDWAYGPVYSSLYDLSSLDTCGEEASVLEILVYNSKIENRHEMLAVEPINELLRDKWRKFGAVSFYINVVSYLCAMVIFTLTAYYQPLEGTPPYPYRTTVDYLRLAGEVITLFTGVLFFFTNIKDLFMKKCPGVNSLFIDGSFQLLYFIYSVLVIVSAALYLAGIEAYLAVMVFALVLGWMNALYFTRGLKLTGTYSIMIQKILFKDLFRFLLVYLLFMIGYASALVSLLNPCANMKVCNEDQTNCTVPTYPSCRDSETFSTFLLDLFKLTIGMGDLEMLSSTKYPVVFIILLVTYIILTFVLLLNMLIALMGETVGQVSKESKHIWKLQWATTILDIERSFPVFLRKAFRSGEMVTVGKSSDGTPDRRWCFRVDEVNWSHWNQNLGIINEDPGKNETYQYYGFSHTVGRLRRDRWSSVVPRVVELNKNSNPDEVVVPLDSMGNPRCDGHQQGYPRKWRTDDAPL

A word on the IC50: it is the concentration needed to halve the response being measured. As a reminder, the bioavailability is dose-corrected exposure relative to a reference, in per cent. Consider `Cc1nc(CO)sc1-c1csc(NC(=O)Cn2cc(Cl)cn2)n1` [Compound I-131], for which the IC50 in series [1] fell in the range of 100 to 1000 nM. Moreover, the “CYP3A4 fluorescent MBI test: difference between IC50 values without and with preincubation” value in series [2] is “(−) (when the difference is 3 μM or less, this was defined as (−))”. Moreover, in series [3], the “Mutagenicity (FAT test)” value is “(−)”. In series [4], the bioavailability turned out to be 61.4%.
